Test results published in patent publication US20040204340A1, “Polyprolyl inhibitors of cyclophilin” (Guilford Pharmaceuticals, Inc., priority 2003, published 2004).

Test system: cultured chick sensory neurons from dorsal root ganglia
Assay: Chick dorsal root ganglion cultures and neurite outgrowth
Format: cell-based
Conditions: 1 mM, 48 h after treatment (FIGS. 4, 5)
Description: Dorsal root ganglia were dissected from chick embryos of ten day gestation. Whole ganglion explants were cultured on thin layer Matrigel-coated 12 well plates with Liebovitz L15 plus high glucose media supplemented with 2 mM glutamine and […], and also containing 10 μM cytosine 9-D arabinofuranoside (Ara C) at 37° C. in an environment containing 5% CO2. Twenty-four hours later, the DRGs were treated with various concentrations of nerve growth factor, immunophilin ligands or combinations of NFG plus drugs. Forty-eight hours after drug treatment, the ganglia were visualized under phase contrast or Hoffman Modulation contrast with a Zeiss Axiovert inverted microscope. Photomicrographs of the explants were made, and neurite outgrowth was quantitated. Neurites longer than the DRG diameter were counted as positive, with total number of neurites quantitated per each experimental condition. Three to four DRGs are cultured per well, and each treatment was performed in duplicate.

Substance	Promotion of neurite outgrowth (neurotrophic effects)
Ac-Pro-Ala-Pro-Ala-NH2 (Ac-PAPA-NH2)	potent neurotrophic effects
Ac-Pro-Gly-Pro-Phe-NH2 (Ac-PGPF-NH2)	powerful neurotrophic effects
